Assays:
[1] = tested on: aptananozyme III (amino-DBA with (TGTA) spacer (3) on Ce4+-ion-modified C-dots) (DNA, aptamer) TGTACGACGCCAGTTTGAAGGTTCGTTCGCAGGTGTGGAGTGACGTCG; test: ITC; settings: 100 mM NaCl, 5 mM MgCl2; 5 mM MES pH 5.5; aptamer immobilised on Ce4+-C-dots; 20 µM aptananozyme, 600 µM dopamine titrant
[2] = tested on: aptananozyme IV (amino-DBA with (TGTA)2 spacer (4) on Ce4+-ion-modified C-dots) (DNA, aptamer) TGTATGTACGACGCCAGTTTGAAGGTTCGTTCGCAGGTGTGGAGTGACGTCG; test: ITC; settings: 100 mM NaCl, 5 mM MgCl2; 5 mM MES pH 5.5; aptamer immobilised on Ce4+-C-dots; 20 µM aptananozyme, 600 µM dopamine titrant
[3] = tested on: aptananozyme V (amino-DBA with (TGTA)3 spacer (5) on Ce4+-ion-modified C-dots) (DNA, aptamer) TGTATGTATGTACGACGCCAGTTTGAAGGTTCGTTCGCAGGTGTGGAGTGACGTCG; test: ITC; settings: 100 mM NaCl, 5 mM MgCl2; 5 mM MES pH 5.5; aptamer immobilised on Ce4+-C-dots; 20 µM aptananozyme, 600 µM dopamine titrant
[4] = tested on: DBA (free dopamine binding aptamer) (DNA, aptamer) CGACGCCAGTTTGAAGGTTCGTTCGCAGGTGTGGAGTGACGTCG; settings: conditions not stated

`NCCc1ccc(O)c(O)c1` was tested, and the Kd [1] was 950 ± 30 nM, the Kd [2] was 880 ± 40 nM and the Kd [3] was 910 ± 100 nM. It also gave a Kd [4] of 720 ± 30 nM.

From article PMC9782376 (2022)
